According to ChEMBL document CHEMBL4321883 (J Med Chem, 2020):
Active and inactive are the calls of the source. The rule behind the calls is not given here.

Columns and labels:
Endothelial lipase [1] = molecular target: T1, Endothelial lipase (Homo sapiens, UniProt Q9Y5X9); experiment: Inhibition of EL in human HT1080 cells using D31-POPC-HDL as substrate incubated for 2 hrs in presence of human serum by LC/MS analysis; assay type: cell-based
T1 sequence (Q9Y5X9 whole entry): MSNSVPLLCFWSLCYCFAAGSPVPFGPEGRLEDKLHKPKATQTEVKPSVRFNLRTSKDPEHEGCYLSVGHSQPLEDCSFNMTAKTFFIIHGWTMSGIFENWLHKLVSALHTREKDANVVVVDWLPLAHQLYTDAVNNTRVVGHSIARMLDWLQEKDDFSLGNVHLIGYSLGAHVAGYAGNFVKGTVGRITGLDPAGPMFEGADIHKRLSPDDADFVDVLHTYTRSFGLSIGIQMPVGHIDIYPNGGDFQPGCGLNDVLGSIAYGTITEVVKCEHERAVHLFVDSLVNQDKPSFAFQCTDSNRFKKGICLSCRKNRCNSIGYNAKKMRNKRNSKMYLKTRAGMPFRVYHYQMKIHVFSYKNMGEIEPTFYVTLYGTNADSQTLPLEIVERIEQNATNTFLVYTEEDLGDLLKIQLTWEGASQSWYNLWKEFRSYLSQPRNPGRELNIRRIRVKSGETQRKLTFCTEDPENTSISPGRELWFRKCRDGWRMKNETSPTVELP

Endothelial lipase [2] = molecular target: T1, Endothelial lipase; experiment: Inhibition of EL in human HT1080 cells using A10070 as substrate preincubated for 20 min followed by DMPG vesicle doped substrate addition and measured at 20 secs interval for 10 mins by fluorescence assay; assay type: cell-based
Endothelial lipase [3] = molecular target: T1, Endothelial lipase; experiment: Inhibition of EL in human HT1080 cells using D31-POPC-HDL as substrate incubated for 2 hrs in presence of mouse plasma by LC/MS analysis; assay type: cell-based
[4] = molecular target: T2, Hepatic triacylglycerol lipase (Homo sapiens, UniProt P11150); experiment: Inhibition of human HL […] using A10070 as substrate preincubated for 20 min followed by DMPG vesicle doped substrate addition and measured at 20 secs interval for 10 mins by fluorescence assay; assay type: cell-based
T2 sequence (P11150 whole entry): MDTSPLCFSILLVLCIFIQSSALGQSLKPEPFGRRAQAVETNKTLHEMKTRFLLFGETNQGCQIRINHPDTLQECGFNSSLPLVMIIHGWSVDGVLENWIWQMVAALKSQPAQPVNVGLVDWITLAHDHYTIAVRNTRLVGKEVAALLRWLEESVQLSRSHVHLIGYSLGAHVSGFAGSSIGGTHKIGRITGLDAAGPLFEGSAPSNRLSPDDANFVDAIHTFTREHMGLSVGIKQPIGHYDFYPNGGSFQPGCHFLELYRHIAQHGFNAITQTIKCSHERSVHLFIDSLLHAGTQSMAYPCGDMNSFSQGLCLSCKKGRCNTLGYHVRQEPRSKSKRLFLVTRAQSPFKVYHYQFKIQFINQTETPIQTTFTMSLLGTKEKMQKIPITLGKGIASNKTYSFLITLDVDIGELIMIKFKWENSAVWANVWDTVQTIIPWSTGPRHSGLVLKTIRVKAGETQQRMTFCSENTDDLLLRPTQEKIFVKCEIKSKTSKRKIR

Endothelial lipase [5] = molecular target: T3, Endothelial lipase (Mus musculus, UniProt Q9WVG5); experiment: Inhibition of endothelial lipase in hepatic lipase knock-out mouse plasma; assay type: cell-free
T3 sequence (Q9WVG5 whole entry): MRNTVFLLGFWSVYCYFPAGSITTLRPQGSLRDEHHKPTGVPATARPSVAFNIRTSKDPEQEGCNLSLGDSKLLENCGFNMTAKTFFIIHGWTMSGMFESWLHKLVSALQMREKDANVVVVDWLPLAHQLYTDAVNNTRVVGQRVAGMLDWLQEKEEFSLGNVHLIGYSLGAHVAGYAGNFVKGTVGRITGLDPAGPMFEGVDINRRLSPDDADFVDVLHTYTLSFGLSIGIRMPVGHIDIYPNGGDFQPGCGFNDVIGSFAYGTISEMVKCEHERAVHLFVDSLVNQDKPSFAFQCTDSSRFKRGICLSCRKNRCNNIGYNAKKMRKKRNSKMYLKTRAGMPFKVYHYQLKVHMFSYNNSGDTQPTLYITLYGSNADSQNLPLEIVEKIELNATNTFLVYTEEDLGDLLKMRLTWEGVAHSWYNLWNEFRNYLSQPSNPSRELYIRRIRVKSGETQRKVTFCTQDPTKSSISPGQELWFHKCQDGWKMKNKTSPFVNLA

[6] = Metabolic stability in human liver microsomes assessed as compound remaining at 0.5 uM incubated for 10 mins; assay type: ADME, Microsome; details: read-out: Stability
[7] = Metabolic stability in mouse liver microsomes assessed as compound remaining at 0.5 uM incubated for 10 mins; assay type: ADME, Microsome; details: read-out: Stability
Mus musculus [8] = experiment: Antihyperlipidemic activity in C57BL/6 mouse assessed as increase in HDL-C level at 50 mg/kg, ip qd administered as nanosuspension for 2 days measured 6 hrs post-last dose by LC-MS/MS analysis relative to control; assay type: functional
Mus musculus [9] = experiment: Antihyperlipidemic activity in EL knock out C57BL/6 mouse assessed as increase in HDL-C level at 50 mg/kg, ip qd administered as nanosuspension for 2 days measured 6 hrs post-last dose by LC-MS/MS analysis relative to control; assay type: functional, organism-based
Mus musculus [10] = experiment: Induction of macrophage-mediated [3H]-cholesterol efflux in C57BL/6 mouse at 50 mg/kg, ip qd administered as nanosuspension for 3 days followed by [3H]-cholesterol addition on day 3 and measured after 2.5 hrs relative to control; assay type: functional
Mus musculus [11] = experiment: Antihyperlipidemic activity in hCETP/apoB-100 dual transgenic C57BL/6 mouse assessed as increase in HDL-C level at 50 mg/kg, ip bid administered as nanosuspension for 2 days measured 6 hrs post-last dose by FPLC analysis relative to control; assay type: functional
[12] = Plasma concentration in HL knock out C57BL/6 mouse at 50 mg/kg, ip qd administered as nanosuspension for 2 days measured 6 hrs post-last dose by LC-MS/MS analysis; assay type: ADME, organism-based
[13] = Plasma concentration in C57BL/6 mouse at 50 mg/kg, po measured after 24 hrs by LC-MS/MS analysis; assay type: ADME, organism-based
[14] = Plasma concentration in C57BL/6 mouse at 50 mg/kg, ip qd administered as nanosuspension for 2 days measured 6 hrs post-last dose by LC-MS/MS analysis; assay type: ADME, organism-based
[15] = Plasma concentration in EL knock out C57BL/6 mouse at 50 mg/kg, ip qd administered as nanosuspension for 2 days measured 6 hrs post-last dose by LC-MS/MS analysis; assay type: ADME, organism-based
[16] = Plasma concentration in C57BL/6 mouse at 50 mg/kg, sc measured after 24 hrs by LC-MS/MS analysis; assay type: ADME, organism-based
[17] = Plasma concentration in C57BL/6 mouse at 50 mg/kg, ip administered as nanosuspension measured after 24 hrs by LC-MS/MS analysis; assay type: ADME, organism-based
Mus musculus [18] = experiment: Antihyperlipidemic activity in HL knock out C57BL/6 mouse assessed as increase in HDL-C level at 50 mg/kg, ip qd administered as nanosuspension for 2 days measured 6 hrs post-last dose by LC-MS/MS analysis relative to control; assay type: functional
Mus musculus [19] = experiment: Antihyperlipidemic activity in hCETP/apoB-100 dual transgenic C57BL/6 mouse assessed as effect on LDL-C level at 50 mg/kg, ip bid administered as nanosuspension for 2 days measured 6 hrs post-last dose by FPLC analysis; assay type: functional, organism-based
[20] = Metabolic stability in rat liver microsomes assessed as compound remaining at 0.5 uM incubated for 10 mins; assay type: ADME, Microsome; details: read-out: Stability
[21] = Cmax in C57BL/6 mouse at 50 mg/kg, ip administered as nanosuspension measured after 24 hrs by LC-MS/MS analysis; assay type: ADME, organism-based; design: dose 50 mg/kg, route intraperitoneal; details: in vivo
Homo sapiens = species on record: Homo sapiens; experiment: Selectivity index, ratio of IC50 for human HL expressed in […] cells to IC50 for EL in human HT1080 cells; assay type: cell-based
[22] = AUC (0 to 24 hrs) in C57BL/6 mouse at 50 mg/kg, ip administered as nanosuspension measured after 24 hrs by LC-MS/MS analysis; assay type: ADME, organism-based; design: dose 50 mg/kg, time < 24 hr, route intraperitoneal; details: in vivo

SMILES	IC50 (Endothelial lipase [1]) [nM]	IC50 (Endothelial lipase [2]) [nM]	IC50 (Endothelial lipase [3]) [nM]	IC50 [4] [nM]	IC50 (Endothelial lipase [5]) [nM]	remaining at 10 min, 0.5 µM [6] [%]	remaining at 10 min, 0.5 µM [7] [%]	concentration at 24 h [17] [nM]	Activity (Mus musculus [8])	further results
CN(Cc1nnc(C(=O)c2nc3ccc(-c4ccccc4)cc3s2)o1)S(N)(=O)=O	7000	20	1000	3	–	–	–	–	–	–
NS(=O)(=O)NCc1nnc(C(=O)c2nc3cc(F)c(C(=O)NCC(F)(F)F)cc3s2)o1	50	< 0.5	–	4	200	87	> 80	250	37.8 - 38%	remaining at 10 min, 0.5 µM [20]: > 80%; Cmax [21]: 7100 nM; Ratio IC50 (Homo sapiens): 8; AUC(0-t) at 24 h [22]: 58 µM·h
NC(=O)NCc1nnc(C(=O)c2nc3ccc(-c4ccccc4)cc3s2)o1	1000	30	1000	> 10	–	–	–	–	–	–

Now from value to compound, other results behind:

IC50 (Endothelial lipase [1]) [nM]	IC50 (Endothelial lipase [2]) [nM]	IC50 (Endothelial lipase [3]) [nM]	IC50 [4] [nM]	IC50 (Endothelial lipase [5]) [nM]	remaining at 10 min, 0.5 µM [6] [%]	remaining at 10 min, 0.5 µM [7] [%]	concentration at 24 h [17] [nM]	SMILES	Activity (Mus musculus [8])	further results
200	< 0.5	–	4	200	98	100	–	NS(=O)(=O)NCc1nnc(C(=O)c2nc3cc(-c4ccc(C(=O)NCC(F)(F)F)cc4)c(F)cc3s2)o1	–	–
–	–	–	–	–	–	–	500	NS(=O)(=O)NCc1nnc(C(=O)c2nc3ccc(-c4ccccc4)cc3s2)o1	56%	Activity (Mus musculus [9]): inactive; Activity (Mus musculus [10]): 53%; Activity (Mus musculus [11]): 36%; concentration at 6 h [12]: 11000 nM; concentration at 24 h [13]: 250 nM; concentration at 6 h [14]: 520 nM; concentration at 6 h [15]: 8500 nM; concentration at 24 h [16]: 190 nM; Activity (Mus musculus [18]): 31.7 - 32%; Activity (Mus musculus [19]): inactive
–	–	–	–	–	–	–	460	NS(=O)(=O)NCc1nnc(C(=O)c2nc3cc(-c4ccc5c(c4)CNC5=O)c(F)cc3s2)o1	36.9 - 37%	–
